Measured values from patent US11019820B2 (BASF SE, priority 2013, dated 2021).

What was measured:
Format in all cases: in vivo
Nephotettix virescens = test: Rice green leafhopper (Nephotettix virescens) rice seedling spray test; conditions: 72 h, read-out: mortality in comparison with untreated controls
Experimental: (§1) Rice seedlings were cleaned and washed 24 hours before spraying. The active compounds were formulated in 50:50 acetone:water (vol:vol), and 0.1% vol/vol surfactant (EL 620) was added. Potted rice seedlings were sprayed with 5 ml test solution, air dried, placed in cages and inoculated with 10 adults. Treated rice plants were kept at about 28-29° C. and relative humidity of about 50-60%. Percent mortality was recorded after 72 hours.

Tetranychus spp = test: Spider mite (Tetranychus spp) potted cotton plant spray test; conditions: sprayed potted cotton plants, 72 hours after treatment, read-out: mortality in comparison with untreated controls
Experimental: The active compound is dissolved at the desired concentration in a mixture of 1:1 (vol:vol) distilled water:acetone. The test solution is prepared at the day of use. Potted cotton plants at two weeks of age were cleaned, air dried and inoculated with approximately 50 mites of various stages. The potted plants are sprayed after the pest population has been recorded. Percent mortality is recorded 72 hours after treatment.

Dichromothrips corbetti = test: Orchid thrips (Dichromothrips corbetti) floral-immersion test; conditions: 72 h, read-out: mortality in comparison with untreated controls
Experimental: Dichromothrips corbetti adults used for bioassay were obtained from a colony maintained continuously under laboratory conditions. For testing purposes, the test compound is diluted in a 1:1 mixture of acetone:water (vol:vol), plus 0.01% vol/vol Alkannuls® EL 620 surfactant.
Thrips potency of each compound was evaluated by using a floral-immersion technique. Plastic petri dishes were used as test arenas. All petals of individual, intact orchid flowers were dipped into treatment solution and allowed to dry. Treated flowers were placed into individual petri dishes along with about 20 adult thrips. The petri dishes were then covered with lids. All test arenas were held under continuous light and a temperature of about 28° C. for duration of the assay. After 3 days, the numbers of live thrips were counted on each flower, and along inner walls of each petri dish. The percent mortality was recorded 72 hours after treatment.

Nilaparvata lugens = test: Rice brown plant hopper (Nilaparvata lugens) rice seedling spray test; conditions: 72 h, read-out: mortality in comparison with untreated controls
Experimental: as §1, with “(vol:vol)” for “(vol:vol),”

Megoura viciae = test: Vetch aphid (Megoura viciae) leaf disk test; conditions: foliar, 120 h, read-out: mortality in comparison with untreated controls (aphid mortality)
Experimental: For evaluating control of vetch aphid (Megoura viciae) through contact or systemic means the test unit consisted of 24-well-microtiter plates containing broad bean leaf disks.
The compounds were formulated using a solution containing 75% v/v water and 25% v/v DMSO. Different concentrations of formulated compounds were sprayed onto the leaf disks at 2.5 μl, using a custom built micro atomizer, at two replications.
After application, the leaf disks were air-dried and 5-8 adult aphids placed on the leaf disks inside the microtiter plate wells. The aphids were then allowed to suck on the treated leaf disks and incubated at about 23±1° C. and about 50±5% relative humidity for 5 days. Aphid mortality and fecundity was then visually assessed.

Myzus persicae = test: Green peach aphid (Myzus persicae) systemic artificial diet test; conditions: 72 h, read-out: mortality in comparison with untreated controls (aphid mortality)
From the text: For evaluating control of green peach aphid (Myzus persicae) through systemic means the test unit consisted of 96-well-microtiter plates containing liquid artificial diet under an artificial membrane.
The compounds were formulated using a solution containing 75% v/v water and 25% v/v DMSO. Different concentrations of formulated compounds were pipetted into the aphid diet, using a custom built pipetter, at two replications.
After application, 5-8 adult aphids were placed on the artificial membrane inside the microtiter plate wells. The aphids were then allowed to suck on the treated aphid diet and incubated at about 23±1° C. and about 50±5% relative humidity for 3 days. Aphid mortality and fecundity was then visually assessed.

Cn1c2[n+](c([O-])c(-c3ccccc3)c1=O)[C@@H](c1cnc(Cl)s1)CC2 [Compound C-42]
> 75%: mortality at 500 ppm (Nephotettix virescens) | mortality at 500 ppm (Tetranychus spp) | mortality at 500 ppm (Dichromothrips corbetti) | mortality at 500 ppm (Nilaparvata lugens)

CC[n+]1c([O-])c(-c2ccccc2)c(=O)n2c1CCCC2c1ccc(Cl)nc1 (stereo not shown) [Compound C-9]
> 75%: mortality at 500 ppm (Tetranychus spp) | mortality at 2500 ppm (Megoura viciae) | mortality at 2500 ppm (Myzus persicae)
